“Also recorded” adds a separate entry of the source.
Assays:
[1] = Stability of Olanzapine Form I at stressed conditions (40° C./75% RH), HPLC purity, total impurity and colour (UV absorbance at 430 nm); assay type: physicochemical
[2] = cited from earlier work
[3] = Stability of Olanzapine Form I at stressed conditions (40° C./75% RH), HPLC purity, total impurity and colour (UV absorbance at 430 nm); assay type: physicochemical; conditions: for Absorbance at 430 nm Log I/Io: colour; for Stability under stressed conditions: stressed conditions (40° C.)
Procedure: The colour of Olanzapine is determined by following method:
Olanzapine 50 mg was dissolved in 50 ml 0.1 N HCl in methanol, which was diluted to prepare 100 μgm/ml, 200 μgm/ml, 500 μgm/ml of Olanzapine solution. […] Calibration curve was plotted between absorbance and concentration.
% of Colour=Amount of colour from calibration curve×100/Weight of sample taken.

In the case of `Cc1cc2c(s1)Nc1ccccc1N=C2N1CCN(C)CC1` [Olanzapine Form I, 2-methyl-4-(4-methyl-1-piperazinyl)-10H-thieno[2,3-b][1,5]benzodiazepine], the “Impurity Profile Chromatographic purity %” value ([1]; 30 DAYS/40° C./75% RH) is reported as 99.94%, the “Impurity Profile Total Imp. % age” value ([1]; 30 DAYS/40° C./75% RH) is reported as 0.06 % age and the “Absorbance at 430 nm Log I/Io” value ([1]; 30 DAYS/40° C./75% RH, colour) is reported as 0.402. For the same molecule, the “Impurity Profile Chromatographic purity %” value ([1]; 60 DAYS/40° C./75% RH) was 99.96%, the “Impurity Profile Total Imp. % age” value ([1]; 60 DAYS/40° C./75% RH) was 0.04 % age and the “Impurity Profile Chromatographic purity %” value ([1]; 120 DAYS/40° C./75% RH) was 99.95%. For the same molecule, the “Impurity Profile Total Imp. % age” value ([1]; 120 DAYS/40° C./75% RH) was 0.05 % age, the “Impurity Profile Chromatographic purity %” value ([1]; 180 DAYS/40° C./75% RH) was 99.93% and the “Impurity Profile Total Imp. % age” value ([1]; 180 DAYS/40° C./75% RH) was 0.07 % age. For the same molecule, the “Impurity Profile Chromatographic purity %” value ([1]; Initial) was 99.97%, the “Impurity Profile Total Imp. % age” value ([1]; Initial) was 0.03 % age and the “Stability / colour on standing” value ([2]; Form I crystallized from acetonitrile per U.S. Pat. No. 5,229,382, on standing) was “metastable and changes its color on standing”. For the same molecule, the “Stability at room temperature” value ([2]; Form I prepared from alcoholic solvent, U.S. Pat. No. 6,906,062, room temperature) was “stable form at room temperature”, the “Absorbance at 430 nm Log I/Io” value ([3]; 60 DAYS/40° C./75% RH) was 0.407 and the “Absorbance at 430 nm Log I/Io” value ([3]; 120 DAYS/40° C./75% RH) was 0.4034. For the same molecule, the “Absorbance at 430 nm Log I/Io” value ([3]; 180 DAYS/40° C./75% RH) was 0.4026, the “Absorbance at 430 nm Log I/Io” value ([3]; Initial) was 0.4 and the “Colour stability upon storage” value ([3]; high temperature (40° C.), high moisture or stress conditions) was “colour stable; also recorded: stable colour”. The “Stability under stressed conditions” value ([3]; listed as Form I) was “highly stable” and the “Stability under stressed conditions” value ([3]; listed as olanzapine) was “high stability”.
